Experimental data reported in patent US20170342312A1, “COMPOSITION AND METHOD FOR VISCOSITY CONTROL IN DELIVERY APPLICATIONS USING SUBSEA UMBILICALS” (BAKER HUGHES, A GE COMPANY, LLC, priority 2016, published 2017).
“And” between values parts separate entries of the source, which are not always exact repeats. Equal values may be shown once. Read-outs that look alike come from different tables or passages of the source.

How the values were obtained:
[1] = Solvent viscosity at 20° C.; assay type: physicochemical; details: 20° C./1 Bar
[2] = Solvent flash point; assay type: physicochemical
[3] = Solvent freezing point; assay type: physicochemical
[4] = according to MSDS; cited from earlier work
[5] = system: fish; details: according to MSDS; cited from earlier work
[6] = system: algae; details: according to MSDS; cited from earlier work
[7] = according to MSDS; cited from earlier work; remark: listed apart in the source
[8] = Corrosion rate, autoclave tests; details: corrosion values of Tables 2 and 3
Description: The corrosion rates shown in Table 2 were obtained using autoclave tests at 80° C., a partial pressure of CO2 of 0.75 bar, a brine/hydrocarbon ratio of 99 to 1 and a shear stress of 60 Pa.

[9] = system: invertebrates; details: in vivo; cited from earlier work
[10] = at 20° C.; background statement; cited from earlier work
[11] = listed as ethylene glycol n-butyl ether acetate

Structure (SMILES) | Viscosity [1] | Flash Point [2] | Freezing Point [3] | also measured
CCCCOCCO [Butyl Cellosolve ™, ethylene glycol monobutyl ether] | 2.9 cP | 67.0 °C | −75.0 °C | –
CCCCOCCOC(C)=O [Ethylene Glycol N-Butyl Ether Acetate, ethylene glycol n-butyl ether acetate] | 1.81 cP | 78 °C | −64.0 °C | Log Pow bioaccumulation potential [4]: less than 3; LC50 for fish [5]: > 10 µg/mL; EbC50 for algae [6]: > 10 mg/L; biodegradable in seawater [7]: 77-90%; effect of solvent on performance of the corrosion inhibitors [8]: did not significantly affect the performance of the corrosion inhibitors; Viscosity [1, 11]: 1.79 cP and 1.81 cP; EC50 for invertebrates [9]: > 10 µg/mL; Flash Point [2, 11]: about 78 °C; Freezing Point [3, 11]: about −64 °C
CC(C)O [Isopropanol] | 2.1 cP | 14 °C | −89.0 °C | –
CO [Methanol] | 0.59 cP | 12 °C | −97.8 °C | –
OCCO [Monoethylene Glycol] | 17.3 cP | 116 °C | −13.0 °C | Viscosity [10]: 17 cP
CC(O)CO (stereo not drawn) [Propylene Glycol] | 55.0 cP | 99.0 °C | −59.0 °C | –
O [Water] | 0.895 cP | – | 0 °C | –
